Legend:
[1] = test system: tubulin in MCF-7 breast cancer cells; test: Immunofluorescence confocal microscopy of microtubules; assay type: cell-based, human; conditions: 16 h, 22b 10 μM, paclitaxel and phenstatin 1 μM
Procedure: Briefly, the MCF-7 cells were seeded at a density of 1 × 10^5 cells/mL on eight chamber glass slides (BD Biosciences). […] The cells were then washed in PBS, fixed for 20 min with 4% paraformaldehyde in PBS, and permeabilized in 0.5% Triton X-100. […] Images of the cells were obtained using Leica SP8 confocal microscopy (Wetzlar, Germany) with Leica application suite X software (Wetzlar, Germany). Experiments were performed on three independent occasions.
The micrograph images were obtained with Leica SP8 confocal microscopy utilizing Leica application suite X software. Representative confocal images of three separate experiments are shown. The scale bar indicates 25 μm.

leukemia panel = test: NCI60 screen (SRB), panel mean; assay type: cell-based, human; conditions: one dose 10 µM, 48 h
CYP1A1 = CYP1A1 (Homo sapiens, UniProt P04798); test: Cytochrome P450 assay (DBF fluorescence)
[2] = test system: MCF-10A human mammary epithelial cells; test: Cytotoxicity in MCF-10A cells (alamarBlue); assay type: cell-based; conditions: 10 μM, 24 h
Procedure: (§1) Figure 9 Effect of compounds 22a (A) and 22b (B) on the cell viability of non-tumorigenic MCF-10A human mammary epithelial cells at 24, 48, and 72 h. Cells were treated with the compounds 22a and 22b at concentrations of 10 μM, 1 μM, 0.5 μM, and 0.4 μM for 24, 48, or 72 h. […] Cell viability was expressed as a percentage of vehicle control (ethanol 1% (v/v)) and was determined by an alamarBlue assay (average ± SEM of three independent experiments). Two-way ANOVA (Bonferroni post-test) was used to test for statistical significance (*, p < 0.05; **, p < 0.01; ***, p < 0.001).
(§2) HL-60 cells were suspension cells and the seeding density for the viability assay was 25,000 cells/mL. MCF-7 cells (adherent) were cultured in Minimum Essential Media (MEM) with GlutaMAX™-I, supplemented with 1% (v/v) non-essential amino acids, 10% (v/v) fetal bovine serum (FBS), purchased from BD Biosciences (Edmund Halley Road, Oxford, UK), and 1% (v/v) penicillin/streptomycin 5000 U/mL. The MCF-7 cells used in the screening of the compounds during these experiments were mycoplasma-free. The seeding density of MCF-7 in the viability assay was 25,000 cells/mL and 50,000 cells/mL in the FACS assay. Normal breast cells (MCF-10A) (adherent) were cultured in Dulbecco’s Modified Eagle Medium: Nutrient Mixture F-12 (DMEM/F12; Gibco) supplemented with 5% horse serum (Invitrogen, Waltham, MA, USA), 20 ng/mL epidermal growth factor (Merck Millipore, Burlington, MA, USA), 0.5 μg/mL hydrocortisone (Sigma, Kanagawa, Japan), 100 ng/mL cholera toxin (Sigma), 10 μg/mL insulin (Sigma), and penicillin/streptomycin 5000 U/mL (1%) (Gibco, Waltham, MA, USA). […] MDA-MB-231 cells were cultured in Dulbecco’s Modified Eagle Medium, which was supplemented with 10% (v/v) fetal bovine serum (FBS) and 1% (v/v) penicillin/streptomycin 5000 U/mL. When not in use, all cells were kept in liquid nitrogen and frozen in a freezing media made of 90% FBS and 10% DMSO. All cells were grown in an atmosphere of 5% CO2/95% air in T75 culture flasks. The media was changed every 2–3 days and media was always prewarmed to 37 °C. All were sub-cultured every 3–4 days by trypsinization using TrypLE™ Express enzyme when confluence was reached to allow growth, prevent excessive cell death, and minimize the risk of infections derived by over-confluence. For the cell viability assay, the number of cells per milliliter was 25,000 cells/mL while the FACS assay utilized 50,000 cells/mL. Cells were maintained at 37 °C in 5% CO2 in a humidified incubator.
(§3) The biochemical assays were performed in triplicate and on at least three independent occasions to facilitate the determination of mean values. For the viability assay, cells were grown until 80% confluent. Adherent cells such as MCF-7, MDA-MB-231, and MCF-10A were trypsinized to detach them from the flask, counted as previously described, and seeded in 96 well plates with a seeding density of 25,000 cells /mL (200 µL of suspension in each well so that the final number of cells per well was 5000) and 1 × 10^4 cells/well seeding density for suspension HL-60 cells. Adherent cells were incubated for 24 h after being seeded in the 96 well plate and treated on the following day, while suspension cells were treated on the same day of the seeding. In both cases, the incubation time after the treatment with the drug was 72 h. After 68 h incubation, the AlamarBlue was added (20 µL in each well) and the incubation time was completed. After 72 h, the change in color was measured by spectrofluorimetry at an excitation wavelength of 544 nm and emission wavelength of 590 nm. AlamarBlue is a cell viability indicator containing a compound called resazurin. AlamarBlue is water soluble, stable in culture media, non-toxic, and is permeable through the cell membrane. When resazurin (blue) enters the live cells, it is reduced to the fluorescent molecule resorufin (pink).

[3] = Cytotoxicity in MCF-10A cells (alamarBlue); assay type: cell-based, human; conditions: human, MCF-10A non-tumorigenic mammary epithelial cells
Procedure: as §1, §2, §3

[4] = test system: NCI-H322M (Non-Small Cell Lung Cancer); test: NCI60 screen (SRB); assay type: cell-based, human; conditions: 48 h; for growth percent: one dose 10 µM
HCT-116 (Colon Cancer) = test: NCI60 screen (SRB); assay type: cell-based, human; conditions: 48 h; for growth percent: one dose 10 µM
[5] = 1 μM, 24 h, read-out: cell viability

CYP1A1, sequence (P04798 whole entry): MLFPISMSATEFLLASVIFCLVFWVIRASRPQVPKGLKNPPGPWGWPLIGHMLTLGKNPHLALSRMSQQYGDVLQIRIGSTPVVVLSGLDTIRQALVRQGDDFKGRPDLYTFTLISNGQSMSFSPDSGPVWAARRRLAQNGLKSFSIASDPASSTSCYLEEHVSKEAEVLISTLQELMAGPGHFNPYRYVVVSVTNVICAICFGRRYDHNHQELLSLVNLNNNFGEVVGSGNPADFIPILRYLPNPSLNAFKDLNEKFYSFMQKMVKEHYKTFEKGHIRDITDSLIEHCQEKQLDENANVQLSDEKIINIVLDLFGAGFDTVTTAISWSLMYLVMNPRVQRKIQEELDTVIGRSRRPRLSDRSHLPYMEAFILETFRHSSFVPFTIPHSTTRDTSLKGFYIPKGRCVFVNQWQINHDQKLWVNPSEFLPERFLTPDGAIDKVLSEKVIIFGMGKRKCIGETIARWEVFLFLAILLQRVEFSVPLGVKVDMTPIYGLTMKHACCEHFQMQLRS

Row | SMILES | effect on microtubule network [1] | mean growth percentage (leukemia panel) [%] | IC50 (CYP1A1) [µM] | cell death [2] | viability at 72 h, 0.4 µM ([3]; 72 h) [%] | viability at 72 h, 0.5 µM ([3]; 0.5 μM, 72 h, read-out: cell viability) [%] | viability at 24 h, 1 µM [3, 5] [%] | viability at 48 h, 1 µM ([3]; 1 μM, read-out: viable cells) [%] | viability at 72 h, 1 µM ([3]; 1 μM, 72 h, read-out: cell viability) [%] | viability at 48 h, 10 µM ([3]; 10 μM, read-out: viable cells) [%] | viability at 72 h, 10 µM ([3]; 10 μM, 72 h, read-out: cell viability) [%] | IC50 ([4]; Homo sapiens, five-dose, read-out: IC50 (cell marked * in GI50 column)) [µM] | growth percent [4] [%] | GI50 (HCT-116 (Colon Cancer); Homo sapiens, five-dose) [µM] | growth percent (HCT-116 (Colon Cancer)) [%] | viability at 24 h, 10 µM ([3]; 10 μM, 24 h, read-out: viable cells) [%]
1 | COc1ccc(/C=C/C(c2cc(OC)c(OC)c(OC)c2)n2cncn2)cc1O (centres unmarked) [Compound 22b, (E)-5-(3-(1H-1,2,4-Triazol-1-yl)-3-(3,4,5-trimethoxyphenyl)prop-1-en-1-yl)-2-methoxyphenol] | disorganized microtubule network structure similar to that observed with phenstatin, together with multinucleation | 4.2 | > 53 | approximately 50% | > 80 | 80 | 100 | > 80 | 55 | ~30 | 24 | > 100 | 54.65 | 0.041 | 10.52 | –
2 | COc1cc(/C=C/C(/C=C/c2cc(OC)c(OC)c(OC)c2)n2ccnc2)cc(OC)c1OC [Compound 30, 1-((1E,4E)-1,5-bis(3,4,5-trimethoxyphenyl)penta-1,4-dien-3-yl)-1H-imidazole] | – | 60.5 | – | – | – | – | – | – | – | – | – | – | 96.68 | – | 78.18 | –
3 | COc1ccc(/C=C/C(c2cc(OC)c(OC)c(OC)c2)n2ccnc2)cc1O (centres unmarked) [Compound 23b, (E)-5-(3-(1H-Imidazol-1-yl)-3-(3,4,5-trimethoxyphenyl)prop-1-en-1-yl)-2-methoxyphenol] | – | 11.2 | – | – | – | – | – | – | – | – | – | – | 45.84 | – | 16.67 | –
4 | COc1ccc(/C=C/C(c2cc(OC)c(OC)c(OC)c2)n2cncn2)cc1 (centres unmarked) [Compound 22a, (E)-1-(3-(4-Methoxyphenyl)-1-(3,4,5-trimethoxyphenyl)allyl)-1H-1,2,4-triazole] | – | 24.0 | – | – | > 80 | – | 100 | > 80 | – | ~57 | – | – | 61.24 | – | 21.99 | 78
5 | COc1ccc(C2CC(n3ccnc3)c3cc(OC)c(OC)c(OC)c32)cc1O (centres unmarked) [Compound 27a, 5-(3-(1H-Imidazol-1-yl)-5,6,7-trimethoxy-2,3-dihydro-1H-inden-1-yl)-2-methoxyphenol] | – | 73.2 | – | – | – | – | – | – | – | – | – | – | 101.51 | – | 81.13 | –

Source: paper PMC11769294, “(E)-1-(3-(3-Hydroxy-4-Methoxyphenyl)-1-(3,4,5-Trimethoxyphenyl)allyl)-1H-1,2,4-Triazole and Related Compounds: Their Synthesis and Biological Evaluation as Novel Antimitotic Agents Targeting Breast Cancer” (Pharmaceuticals, 2025)
